Results reported in patent US7915423B2, “Solid states of pantoprazole sodium, processes for preparing them and processes for preparing known pantoprazole sodium hydrates” (Teva Pharmaceutical Industries, Ltd., priority 2002, dated 2011).
Values belong to the compound of their own block, whether it stands above or below them.

Experiments:
[1] = Thermal interconversion of solid forms on drying, followed by PXRD; assay type: physicochemical; conditions: 100° C. under 10 mm vacuum overnight
[2] = as above; assay type: physicochemical
Method: The PXRD patterns depicted in the accompanying figures were obtained on a Scintag X-Ray powder diffractometer model X'TRA with a copper tube solid state detector. A round standard aluminum sample holder with round zero background quartz plate was used. Scanning parameters: Range: 2-40°2θ: continuous scan, Rate: 3 deg./min.
The mixture was stirred overnight at ambient temperature, giving the crystals. The crystals were filtered on filter paper.
Pantoprazole sodium Form V was dried at 65° C. under ambient pressure for two hours.
The solution was stirred overnight without precipitation. The solution was allowed to stand overnight in an opened flask with precipitation of the product. The crystals were filtered and allowed to stand at room temperature open to the air for a short period of time but were not otherwise dried.
The pantoprazole sodium Form VI was then dried at 50° C. under a 10 mm Hg vacuum overnight. The resulting powder was analyzed by PXRD and found to be amorphous.

[3] = cited from earlier work
[4] = Solubility of pantoprazole sodium in alcohols; assay type: physicochemical
Source text: Accordingly, initial investigation focused on how this solvate could be produced by crystallization from a solution rather than a heterogeneous technique. We discovered that combining free pantoprazole and solid sodium hydroxide in 1-butanol and crystallization of the resulting pantoprazole sodium salt yielded Form V. The presence of minor amounts of water originating from the use of non-anhydrous 1-butanol, a hydrated starting material or water adsorbed on the equipment used for crystallization has no effect on the crystal form obtained. […] Again, conditions depleted of water, yet not rigorously anhydrous were investigated. We discovered that Form X can be obtained by crystallization from a solution formed by combining free pantoprazole with sodium hydroxide in 1-propanol.

[5] = 65° C. under ambient pressure for two hours
[6] = 50° C. under 10 mm Hg vacuum overnight

- solid form obtained after drying [1]: amorphous pantoprazole sodium
SMILES: COc1ccnc(C[S+]([O-])c2nc3ccc(OC(F)F)cc3[nH]2)c1OC (stereo not shown) [Pantoprazole sodium sesquihydrate, pantoprazole sodium]

- solid form obtained after drying (PXRD) [2, 5]: pantoprazole sodium Form XIII
- solid form obtained after drying (PXRD) ([2]; 65° C. under ambient pressure for two hours, listed as pantoprazole sodium 2-methylpropanol solvate): pantoprazole sodium Form XIII
SMILES: COc1ccnc(C[S+]([O-])c2nc3ccc(OC(F)F)cc3[nH]2)c1OC (stereo not shown) [Form XII, pantoprazole sodium]

- solid form obtained after drying (PXRD) [2, 5]: pantoprazole sodium Form XIII
- solid form obtained after drying (PXRD) ([2]; 65° C. under ambient pressure for two hours, listed as pantoprazole sodium 1-butanol solvate): pantoprazole sodium Form XIII
SMILES: COc1ccnc(C[S+]([O-])c2nc3ccc(OC(F)F)cc3[nH]2)c1OC (stereo not shown) [Form V, pantoprazole sodium]

SMILES: COc1ccnc(C[S+]([O-])c2nc3ccc(OC(F)F)cc3[nH]2)c1OC (stereo not shown) [monohydrate, pantoprazole sodium]
- solubility in acetone [3]: dissolves with difficulty

- solid form obtained after drying (PXRD) [2, 6]: pantoprazole sodium Form XV
SMILES: COc1ccnc(C[S+]([O-])c2nc3ccc(OC(F)F)cc3[nH]2)c1OC (stereo not shown) [Form XIV, pantoprazole sodium]

- solubility in 1-butanol ([4]; 1-butanol): appreciably soluble
- solubility in 1-propanol ([4]; 1-propanol): high solubility
SMILES: COc1ccnc(C[S+]([O-])c2nc3ccc(OC(F)F)cc3[nH]2)c1OC (stereo not shown) [Pantoprazole sodium, pantoprazole sodium]

- solid form by PXRD as wet sample and after drying ([2]; drying at 50° C.): Form XVIII
SMILES: COc1ccnc(C[S+]([O-])c2nc3ccc(OC(F)F)cc3[nH]2)c1OC (stereo not shown) [Form XVIII, pantoprazole sodium]

- solid form obtained after drying (PXRD) [2, 6]: amorphous
SMILES: COc1ccnc(C[S+]([O-])c2nc3ccc(OC(F)F)cc3[nH]2)c1OC (stereo not shown) [Form VI, pantoprazole sodium]

- dehydration on drying ([2]; mild conditions such as 50° C. at 10 mm Hg vacuum): without causing significant dehydration
SMILES: COc1ccnc(C[S+]([O-])c2nc3ccc(OC(F)F)cc3[nH]2)c1OC (stereo not shown) [Form XX, pantoprazole sodium]

- solid form obtained after further drying ([2]; 65° C. for another two hours under ambient pressure (Form XIII obtained from Form V)): partially amorphous
- solid form obtained after drying (PXRD) [2, 5]: amorphous pantoprazole sodium
SMILES: COc1ccnc(C[S+]([O-])c2nc3ccc(OC(F)F)cc3[nH]2)c1OC (stereo not shown) [Form XIII, pantoprazole sodium]

- solid form obtained after drying (PXRD) [2, 6]: pantoprazole sodium Form I
SMILES: COc1ccnc(C[S+]([O-])c2nc3ccc(OC(F)F)cc3[nH]2)c1OC (stereo not shown) [Form IV, pantoprazole sodium]

- solid form obtained after drying ([2]; 50° C. under 10 mm Hg vacuum, time not given): pantoprazole sodium Form I
SMILES: COc1ccnc(C[S+]([O-])c2nc3ccc(OC(F)F)cc3[nH]2)c1OC (stereo not shown) [Form VIII, pantoprazole sodium]
